What was measured:
[1] = test system: primary CD4+ T cells infected with CH58 TF; assay: FACS-based ADCC assay with patient sera/plasma; format: cell-based, HIV-1; conditions: for fold induction at 50 µM: Human immunodeficiency virus 1, CD4+ T, read-out: Fold over DMSO (% ADCC with ps, n = 3); for ADCC responses against infected cells: 50 μM, 1/1,000 dilution of plasma from 15 HIV-1-infected individuals, result in words
Method: Measurement of antibody or serum-mediated ADCC is performed with a FACS-based assay as described in Prevost, “Influence of the Envelope gp120 Phe 43 Cavity on HIV-1 Sensitivity to Antibody-Dependent Cell-Mediated Cytotoxicity Responses,” 2017, J. Virol 91; Richard, “CD4 mimetics sensitize HIV-1-infected cells to ADCC,” 2015, Proc. Natl. Acad. Sci. USA, 112:E2687-2694; Richard, “Small CD4 Mimetics Prevent HIV-1 Uninfected Bystander CD4+ T Cell Killing Mediated by Antibody-dependent Cell-mediated Cytotoxicity,” 2016, EBioMedicine 3:122-134; Veillette, “The HIV-1 gp120 CD4-Bound Conformation Is Preferentially Targeted by Antibody-Dependent Cellular Cytotoxicity-Mediating Antibodies in Sera from HIV-1-Infected Individuals,” 2015, J. Virol., 89:545-551; Veillette, “Interaction with cellular CD4 exposes HIV-1 envelope epitopes targeted by antibody-dependent cell-mediated cytotoxicity,” 2014, J. Virol., 88:2633-2644; Richard, “Uninfected Bystander Cells Impact the Measurement of HIV-Specific Antibody-Dependent Cellular Cytotoxicity Responses,” 2018, MBio. 9(2): e00358-18; Richard, “BST-2 Expression Modulates Small CD4-Mimetic Sensitization of HIV-1-Infected Cells to Antibody-Dependent Cellular Cytotoxicity,” 2017, J. Virol. 91(11):e00219-17. This assay specifically measures ADCC activity against productively infected cells and is not affected by the confounding effect of uninfected bystander cells. See, Richard, “Uninfected Bystander Cells Impact the Measurement of HIV-Specific Antibody-Dependent Cellular Cytotoxicity Responses,” 2018, MBio., 9(2): e00358-18.
Briefly, primary CD4+ T cells isolated from healthy HIV-1-negative individuals or CEM-NKr cells are infected with HIV viruses. Forty-eight hours post-infection, cells are incubated with autologous PBMC (effector:target cell ratio of 10:1) in the presence of 1:1000 HIV+ sera dilution or anti-Env Abs (5 μg/mL) alone or in combination with increasing concentration of MCG analogs. Infected cells are identified by intracellular staining for HIV-1 p24 or GFP expression (for GFP expressing infectious molecular clones) and the percentage of cytotoxicity is calculated the following formula as described.
For cells infected with HIV-1 primary isolates, infected cells are identified by intracellular staining for HIV-1 p24. In that context, the percentage of cytotoxicity is calculated with the following formula by gating infected lived target cells: […]
The ADCC susceptibility of primary CD4+ T cells infected with CH58 TF mediated by HIV+ plasma+/−MCG analogs also was evaluated using a FACS-based assay as previously reported. See, Ding, 2016, J Virol., 90:2127-2134; and Richard, 2018, MBio 9.
Briefly, Primary CD4 T cells isolated from PBMC were infected with HIV-1CH58TF for 48 hours. For cell surface staining, 5 μg/ml 17b (FIG. 15A) or 1:1000 diluted HIV+ plasma (n=15) (FIG. 15B) were used in the presence of the different MCG analogs (50 μM), (+)-BNM-III-170 or with an equivalent volume of vehicle (DMSO). An Alexa Fluor 647-conjugated anti-human IgG secondary Ab was then used for fluorescent labeling. For ADCC (FIG. 15C), infected cells were used as target cells in a FACS-based ADCC assay that measures the killing of infected (p24+ cells). See, Madani, 2016, J. Virol., 90:5031-5046. The assay determines susceptibility to ADCC mediated by a 1/1,000 dilution of plasma from 15 HIV-1-infected individuals in the presence of the different MCG analogs (50 μM), (+)-BNM-III-170 (50 μM) or with an equivalent volume of vehicle (DMSO). Correlation between cell-surface staining with HIV+ plasma and ADCC was calculated using the Spearman rank correlation (FIG. 15D).

[2] = test system: CH58TF infected primary CD4+ T-cells; assay: Recognition of HIV-1 infected cells by 17b (flow cytometry cell-surface staining); format: cell-based; conditions: for fold induction at 50 µM: Human immunodeficiency virus 1, T-cell, read-out: Fold Over DMSO (17b, n = 1); for recognition of infected cells by the anti-CoRBS 17b antibody: 50 μM, 5 μg/ml 17b, result in words
How it was run: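 Primary CD4+ T cells infected 48 h with HIV-1 CH58TF, stained with 5 μg/ml 17b plus MCG analogs (50 μM), (+)-BNM-III-170 or DMSO vehicle. Detection by Alexa Fluor 647 anti-human IgG secondary and flow cytometry. Infected cells gated as p24+ living cells.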

Structure (SMILES): CS(=O)(=O)N1CCC[C@H](C(=O)Nc2ccccc2Cl)C1 [(S)-MCG-III-027-C01]
- fold induction at 50 µM [1]: 0.722
- fold induction at 50 µM [2]: 1.14

Structure (SMILES): CS(=O)(=O)N1CCC[C@H](C(=O)Nc2cccc(C(F)(F)F)c2)C1 [(S)-MCG-III-027-B04]
- fold induction at 50 µM [1]: 0.129
- fold induction at 50 µM [2]: 1.01

Structure (SMILES): CS(=O)(=O)N1CCC[C@H](C(=O)Nc2ccc(F)cc2)C1 [(S)-MCG-III-027-A03]
- fold induction at 50 µM [1]: 0.969
- fold induction at 50 µM [2]: 1.12

Structure (SMILES): Cn1cnc(S(=O)(=O)N2CCC[C@H](C(=O)Nc3ccc(Cl)c(F)c3)C2)c1 [(S)-MCG-III-116-A02]
- fold induction at 50 µM [1]: 1.86

Structure (SMILES): O=C(Nc1ccc(Cl)c(F)c1)C1CCCOC1 (centres unmarked) [MCG-III-207]
- fold induction at 50 µM [1]: 1.59
- fold induction at 50 µM [2]: 3.69

Structure (SMILES): CS(=O)(=O)N1CCC[C@H](C(=O)Nc2ccc(Br)cc2)C1 [(S)-MCG-III-027-A02]
- fold induction at 50 µM [1]: 0.291
- fold induction at 50 µM [2]: 1.65

Structure (SMILES): CS(=O)(=O)N1CCC[C@H](C(=O)Nc2cccc(Br)c2)C1 [(S)-MCG-III-027-B02]
- fold induction at 50 µM [1]: 0.74
- fold induction at 50 µM [2]: 1.06

Structure (SMILES): COc1cccc(NC(=O)[C@H]2CCCN(S(C)(=O)=O)C2)c1 [(S)-MCG-III-027-B05]
- fold induction at 50 µM [1]: 0.361
- fold induction at 50 µM [2]: 1.03

Structure (SMILES): CS(=O)(=O)N1CCC[C@H](C(=O)Nc2ccc(F)cc2F)C1 [(S)-MCG-III-027-D04]
- fold induction at 50 µM [1]: 1.37
- fold induction at 50 µM [2]: 1.17

Structure (SMILES): NCCNC(=O)N1CCC[C@H](C(=O)Nc2ccc(Cl)c(F)c2)C1 [(S)-MCG-IV-210]
- ADCC responses against infected cells [1]: enhanced ADCC responses
- recognition of infected cells by the anti-CoRBS 17b antibody [2]: enhanced the recognition of infected cells

Structure (SMILES): O=C(Nc1ccc(Cl)c(F)c1)C1CCCN(S(=O)(=O)c2ccccc2)C1 (centres unmarked) [MCG-III-157-B03]
- fold induction at 50 µM [1]: 1.94

Structure (SMILES): CS(=O)(=O)N1CCC[C@H](C(=O)Nc2ccc(Cl)c(F)c2)C1 [(S)-MCG-III-027-D05]
- ADCC responses against infected cells [1]: enhanced ADCC responses
- fold induction at 50 µM [1]: 1.01
- recognition of infected cells by the anti-CoRBS 17b antibody [2]: enhanced the recognition of infected cells
- fold induction at 50 µM [2]: 2.22

Structure (SMILES): CS(=O)(=O)N1CCC[C@H](C(=O)Nc2cccc(Cl)c2)C1 [(S)-MCG-III-027-B01]
- fold induction at 50 µM [1]: 0.87
- fold induction at 50 µM [2]: 1.04

Structure (SMILES): CCCNC(=O)N1CCC[C@H](C(=O)Nc2ccc(Cl)c(F)c2)C1 [(S)-MCG-IV-031-A05]
- ADCC responses against infected cells [1]: enhanced ADCC responses
- recognition of infected cells by the anti-CoRBS 17b antibody [2]: enhanced the recognition of infected cells

Structure (SMILES): CS(=O)(=O)N1CCC[C@H](C(=O)Nc2cccc(F)c2)C1 [(S)-MCG-III-027-B03]
- fold induction at 50 µM [1]: 1.17
- fold induction at 50 µM [2]: 1.05

Structure (SMILES): Cn1cnc(S(=O)(=O)N2CCCC(C(=O)Nc3ccc(Cl)c(F)c3)C2)c1 (centres unmarked) [MCG-III-157-B04]
- fold induction at 50 µM [1]: 1.73

Structure (SMILES): COC(=O)N1CCC[C@H](C(=O)Nc2ccc(Cl)c(F)c2)C1 [(S)-MCG-III-188-A01]
- ADCC responses against infected cells [1]: enhanced ADCC responses
- fold induction at 50 µM [1]: 2.27
- recognition of infected cells by the anti-CoRBS 17b antibody [2]: enhanced the recognition of infected cells
- fold induction at 50 µM [2]: 7.11

Structure (SMILES): CCOC(=O)N1CCC[C@H](C(=O)Nc2ccc(Cl)c(F)c2)C1 [(S)-MCG-III-188-A02]
- ADCC responses against infected cells [1]: enhanced ADCC responses
- fold induction at 50 µM [1]: 0.867
- recognition of infected cells by the anti-CoRBS 17b antibody [2]: enhanced the recognition of infected cells
- fold induction at 50 µM [2]: 6.35

Structure (SMILES): CCS(=O)(=O)N1CCC[C@H](C(=O)Nc2ccc(Cl)c(F)c2)C1 [(S)-MCG-III-085-C01]
- fold induction at 50 µM [1]: 0.487
- fold induction at 50 µM [2]: 5.7

Source: patent US12286401B2, “Small molecules that sensitize HIV-1 infected cells to antibody dependent cellular cytotoxicity” (THE TRUSTEES OF THE UNIVERSITY OF PENNSYLVANIA, priority 2018, dated 2025)
